Source: patent US20240308976A1, “COMPOUNDS THAT MEDIATE PROTEIN DEGRADATION AND USES THEREOF” (Monte Rosa Therapeutics, Inc., priority 2021, published 2024)

How the values were obtained:
GSPT1 = target: T1, GSPT1 (Homo sapiens, UniProt P15170+Q96SW2); test: Immunofluorescence assay for activity to degrade GSPT1 in CAL-51 cells; format: cell-based; conditions: 6 h treatment, read-out: IF Class (GSPT1 degradation, DC50)
T1 construct: CAL-51 cells were purchased from DSMZ (cat. Number ACC302); host or cells: CAL-51
Procedure: Example 147: Compound Activity by Immunofluorescence Assay
The representative compounds were tested in an immunofluorescence assay for their activity to degrade GSPT1. CAL-51 cells were purchased from DSMZ (cat. Number ACC302), sub-cultured in 90% Dulbecco's MEM (4.5 g/L glucose, Gibco 11965)+10% heat inactivated FBS (BioConcept, 2-01F136I) and incubated at 37° C., 5% CO2. For the assay imaging microtiter plate Cell Carrier 96 Ultra (Perkin Elmer 6055302) were pre-coated with Fibronectin (Sigma F085, 30 μL at 0.2 μg/mL) in PBS (100 μL, Gibco 14190) for 45 min at room temperature, rinsed with PBS and CAL-51 cells (30K cells/well) were plated and let to adhere overnight. Cells were treated with compounds typically using a serial dilution ranging from 30 μM to 0.1 nM for 6 h. Compounds were stored at 10 mM DMSO stocks. Vehicle (DMSO), positive (CC-885, 10 μM) and rescue controls (positive control plus 0.2 μM bortezomib) were also included at this stage. Cells were subsequently rinsed with PBS and fixed in 10% Formalin solution (50 μL, Sigma HT5011)) for 20 mins at room temperature. Following three consecutive PBS washes (100 μL), cells were permeabilized in 0.1% Triton X-100 in PBS (Sigma 93443, 50 μL) for 15 min. at room temperature. Following three further PBS washes, 50 μL blocking buffer (1% BSA, Sigma A4503, in PBS) was added for 45 min for signal-to noise reduction. Primary antibody (human GSPT1, Sigma HPA052488) was diluted in blocking buffer (dil.1/300, 35 μL/well) and incubated with the cells overnight at 4° C. After three PBS washes, Alexa-fluor 488 coupled secondary antibodies (Invitrogen, A32731, dil. 1/1000), Alexa-fluor 647-Phalloidin (Invitrogen, A22287, dil. 1/200) and DAPI (Thermo, #62248, dil. 1/1000) were diluted in blocking buffer and incubated with the samples for 2 h at room temperature. After three final PBS washes, samples were conserved in 100 μL PBS in the dark, until measurement. Image acquisition was performed on the Operetta High-Content Imager (Perkin-Elmer). Fluorescence intensity of […] (GSPT1), Alexa-Fluor 647 (Actin) and DAPI (Nucleus) were measured. For the determination of GSPT1 DC50 values, a custom algorithm implemented in the PerkinElmer image analysis software Harmony-Acapella® was developed. After user-defined setting of adjustment parameters, the analysis was run identically without human intervention for all image fields. DAPI staining of the nuclei was used to determine the location of cells using standard nuclei detection modules. Segmentation artifacts were removed by threshold-based filters for area, roundness and intensity. The outline of the cells was determined analogously from the sum of the normalized, smoothed DAPI and Actin channel, starting from each nucleus. The Alexa-Fluor 488 (GSPT1) signal intensity in each cell was finally measured, in order to obtain a Mean intensity per cell. GSPT1 degradation (DC50) was calculated after normalization to controls and data import in CDD vault Database, using non-linear regression.
(§1) In Table 2, each compound is assigned a class (HTRF class) indicating the ability for Cereblon binding by means of their HTRF IC50 values according to […]: A, B, C or D. According to the code, A represents an IC50 value of ≤100 nM, B represents an IC50 value>100 nM and ≤1000 nM, C represents an IC50 value>1000 nM. IF Class assigns each compound a code indicating the ability for GSPT1 degradation: A, B or C. According to the code, A represents a DC50 value of ≤30 nM, B represents a DC50 value>30 nM and ≤300 nM and C represents a DC50 value of >300 nM.

CRBN-DDB1 = CRBN-DDB1 (Homo sapiens, UniProt Q96SW2); test: Compound binding to CRBN by HTRF assay; conditions: CRBN-DDB1 2.5 nM, Cy5-Thalidomide 100 nM, 30 min at ambient temperature; read-out: HTRF Class (Cereblon binding, HTRF IC50)
Procedure: Example 146: Compound Binding to CRBN by HTRF Assay
Compound activity was monitored in a Homogenous Time-Resolved Fluorescence (HTRF) assay using 1-[5-({2-[2-(2-{[2-(2,6-dioxopiperidin-3-yl)-1,3-dioxo-2,3-dihydro-1H-isoindol-4-yl]oxy}acetamido)ethoxy]ethyl}carbamoyl)pentyl]-3,3-dimethyl-2-[(1E,3E)-5-[(2E)-1,3,3-trimethyl-5-sulfo-2,3-dihydro-1H-indol-2-ylidene]penta-1,3-dien-1-yl]-3H-indol-1-ium-5-sulfonate as a fluorescent probe. Biochemical assays were conducted in Greiner white 384 well HiBase plates (Cat. No 784075-25) in 10 μL total volume. A one pot detection solution of CRBN-DDB1 (2.5 nM), Anti-His Terbium Cryptate Gold (1X, PerkinElmer Cat. #: 61HI2TLB), and Cy5-Thalidomide (100 nM, Tenova Cat.: T52461) was prepared in 20 mM HEPES, 20 mM NaCl, 0.2 mM TCEP, 0.2 mM EDTA, and 0.005% Tween20 was dispensed to each assay plate. Compounds were stored in dry, ambient temperatures at 10 mM. A 10-point, 1:3 dilution series was prepared from 10 mM stock concentrations in Echo-compatible LDV plates. 10 nL of each compound dilution series was dispensed into assays wells using an Echo 650 (Labcyte inc. USA). 10 nL of 10 mM Lenalidomide was transferred into the active-control wells for the assay and 10 nL of DMSO was transferred into the neutral-control wells. The assay was then allowed to incubate for 30 min at ambient temperature after transferring compound. Plate measurements were taken on a Pherastar FSX (BMG Labtech, Germany) using the HTRF Red filter (Ex. 337 nm, em1: 620 nm, em2: 665 nm) (Flashes: 50, Integration time: 60-400 us, Z-height: 10 mm, Ratio-multiplier: 10,000). The HTRF signal was then subsequently normalized to the neutral and active controls. Analysis and IC50 values were derived using KNIME analytics (KNIME Zurich) transformation and fitting within Collaborative Drug Discovery (Collaborative Drug Discovery USA). Ki was derived from the geometric mean of the IC50 values using the Cheng-Prustoff transformation.
as §1

CRBN-DDB1, sequence (Q96SW2 whole entry): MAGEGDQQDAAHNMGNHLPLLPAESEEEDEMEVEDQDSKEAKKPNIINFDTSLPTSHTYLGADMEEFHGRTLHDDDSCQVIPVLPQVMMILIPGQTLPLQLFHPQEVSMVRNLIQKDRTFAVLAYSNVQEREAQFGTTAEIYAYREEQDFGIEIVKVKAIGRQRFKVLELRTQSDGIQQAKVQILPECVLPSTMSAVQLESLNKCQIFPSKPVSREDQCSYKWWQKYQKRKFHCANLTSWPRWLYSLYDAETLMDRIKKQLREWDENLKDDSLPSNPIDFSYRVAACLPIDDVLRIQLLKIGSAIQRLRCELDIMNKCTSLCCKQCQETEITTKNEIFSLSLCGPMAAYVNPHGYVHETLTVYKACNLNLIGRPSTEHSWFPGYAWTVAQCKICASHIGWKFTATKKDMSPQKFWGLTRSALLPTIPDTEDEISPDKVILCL
CRBN-DDB1, sequence (Q16531 whole entry partner): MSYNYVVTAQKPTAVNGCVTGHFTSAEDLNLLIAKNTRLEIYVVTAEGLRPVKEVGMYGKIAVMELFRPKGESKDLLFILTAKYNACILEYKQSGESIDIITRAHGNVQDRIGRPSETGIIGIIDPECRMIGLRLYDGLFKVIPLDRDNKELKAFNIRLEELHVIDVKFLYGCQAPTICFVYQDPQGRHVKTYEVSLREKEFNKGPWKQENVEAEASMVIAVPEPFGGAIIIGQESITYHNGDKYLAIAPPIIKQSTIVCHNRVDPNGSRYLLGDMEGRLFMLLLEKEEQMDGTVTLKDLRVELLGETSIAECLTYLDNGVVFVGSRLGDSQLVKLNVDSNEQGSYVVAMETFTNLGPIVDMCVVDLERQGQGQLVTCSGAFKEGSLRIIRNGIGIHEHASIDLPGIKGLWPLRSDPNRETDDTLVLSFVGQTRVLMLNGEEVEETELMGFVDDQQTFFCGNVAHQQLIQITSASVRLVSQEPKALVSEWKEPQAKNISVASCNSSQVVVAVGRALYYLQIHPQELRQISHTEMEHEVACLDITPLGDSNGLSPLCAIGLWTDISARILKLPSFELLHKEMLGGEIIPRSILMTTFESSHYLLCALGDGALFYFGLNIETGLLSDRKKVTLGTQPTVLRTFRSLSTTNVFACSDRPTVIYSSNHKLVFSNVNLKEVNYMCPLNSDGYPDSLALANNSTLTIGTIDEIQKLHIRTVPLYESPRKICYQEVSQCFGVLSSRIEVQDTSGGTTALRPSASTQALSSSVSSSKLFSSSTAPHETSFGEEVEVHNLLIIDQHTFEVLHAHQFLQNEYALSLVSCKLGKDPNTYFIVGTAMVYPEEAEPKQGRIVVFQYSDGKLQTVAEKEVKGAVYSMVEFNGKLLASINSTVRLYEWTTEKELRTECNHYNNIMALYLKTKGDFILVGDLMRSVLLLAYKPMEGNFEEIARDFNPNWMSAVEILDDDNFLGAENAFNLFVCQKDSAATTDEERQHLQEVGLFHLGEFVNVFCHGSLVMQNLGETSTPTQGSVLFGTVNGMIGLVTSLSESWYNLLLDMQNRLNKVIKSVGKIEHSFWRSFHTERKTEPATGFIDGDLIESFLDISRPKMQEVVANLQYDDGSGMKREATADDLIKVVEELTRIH
T1 sequence (P15170 whole entry): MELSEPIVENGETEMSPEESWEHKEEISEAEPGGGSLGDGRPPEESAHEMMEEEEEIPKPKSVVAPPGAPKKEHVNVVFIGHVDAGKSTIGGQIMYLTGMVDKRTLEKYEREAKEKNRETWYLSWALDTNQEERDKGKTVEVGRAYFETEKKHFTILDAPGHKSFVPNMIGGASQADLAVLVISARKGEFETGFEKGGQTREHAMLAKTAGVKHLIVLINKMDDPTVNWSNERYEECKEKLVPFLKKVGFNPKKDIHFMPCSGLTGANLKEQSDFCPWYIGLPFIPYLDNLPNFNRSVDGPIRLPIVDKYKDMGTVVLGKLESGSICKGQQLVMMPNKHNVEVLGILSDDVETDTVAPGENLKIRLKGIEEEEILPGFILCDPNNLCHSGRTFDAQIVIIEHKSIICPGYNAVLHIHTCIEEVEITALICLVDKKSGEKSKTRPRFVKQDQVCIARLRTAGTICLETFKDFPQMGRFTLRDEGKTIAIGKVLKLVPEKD
T1 sequence (Q96SW2 whole entry): as the sequence (Q96SW2 whole entry) above
T1 sequence (Q16531 2-1140 partner limits assumed): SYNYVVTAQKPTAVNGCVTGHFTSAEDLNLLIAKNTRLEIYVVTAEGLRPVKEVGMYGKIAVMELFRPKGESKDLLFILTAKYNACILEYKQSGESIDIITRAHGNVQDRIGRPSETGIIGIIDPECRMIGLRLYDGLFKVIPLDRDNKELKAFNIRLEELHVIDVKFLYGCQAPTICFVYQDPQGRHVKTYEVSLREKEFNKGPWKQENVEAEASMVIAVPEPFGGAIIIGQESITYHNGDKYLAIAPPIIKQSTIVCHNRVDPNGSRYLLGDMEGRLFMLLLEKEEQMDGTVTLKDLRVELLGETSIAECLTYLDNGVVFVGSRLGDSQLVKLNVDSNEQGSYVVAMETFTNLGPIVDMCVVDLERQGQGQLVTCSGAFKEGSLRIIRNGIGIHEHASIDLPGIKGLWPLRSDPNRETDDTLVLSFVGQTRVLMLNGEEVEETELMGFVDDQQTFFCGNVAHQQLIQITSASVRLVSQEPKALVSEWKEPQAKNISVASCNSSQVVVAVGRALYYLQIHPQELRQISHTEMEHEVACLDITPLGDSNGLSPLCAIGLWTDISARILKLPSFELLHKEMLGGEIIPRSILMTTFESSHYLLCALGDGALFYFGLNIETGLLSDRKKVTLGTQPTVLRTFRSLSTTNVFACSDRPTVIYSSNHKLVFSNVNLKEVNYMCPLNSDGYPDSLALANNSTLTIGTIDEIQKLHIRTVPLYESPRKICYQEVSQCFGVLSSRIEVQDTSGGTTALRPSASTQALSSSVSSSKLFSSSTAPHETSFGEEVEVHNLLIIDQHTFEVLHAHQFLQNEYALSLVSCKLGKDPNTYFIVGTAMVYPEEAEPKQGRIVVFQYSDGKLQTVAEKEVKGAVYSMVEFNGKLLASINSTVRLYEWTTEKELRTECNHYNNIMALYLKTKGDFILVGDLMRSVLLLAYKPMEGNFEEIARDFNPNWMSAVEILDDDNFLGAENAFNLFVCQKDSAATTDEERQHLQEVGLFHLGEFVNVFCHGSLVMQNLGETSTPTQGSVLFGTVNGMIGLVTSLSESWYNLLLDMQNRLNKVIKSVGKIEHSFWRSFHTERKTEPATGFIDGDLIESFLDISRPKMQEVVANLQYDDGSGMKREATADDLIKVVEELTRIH

SMILES	DC50 (GSPT1) [nM]	IC50 (CRBN-DDB1) [nM]
Cc1cc(C)cc(NC(=O)OC2CN(c3cc(F)c(C4CCC(=O)NC4=O)c(F)c3)C2)c1 (stereo not drawn) [Compound 4, 1-(4-(2,6-dioxopiperidin-3-yl)-3,5-difluorophenyl)azetidin-3-yl (3,5-dimethyl phenyl)carbamate]	30 to 300	100 to 1000
Cc1c(Cl)cc(NC(=O)OC2CN(c3cc(F)c(C4CCC(=O)NC4=O)c(F)c3)C2)cc1CN1CCOCC1 (stereo not drawn) [Compound 5, 1-(4-(2,6-dioxopiperidin-3-yl)-3,5-difluorophenyl) azetidin-3-yl(3-chloro-4-methyl-5-(morpholinomethyl)phenyl)carbamate]	30 to 300	≤ 100
Cc1ccc(NC(=O)OC2CN(c3cc(F)c(C4CCC(=O)NC4=O)c(F)c3)C2)cc1OC(F)F (stereo not drawn) [Compound 6, 1-(4-(2,6-dioxopiperidin-3-yl)-3,5-difluoropheny) azetidin-3-yl(3-(difluoromethoxy)-4-methylphenyl) carbamate]	30 to 300	100 to 1000
Cc1ccc(NC(=O)NC2CN(c3ccc(C4CCC(=O)NC4=O)c(F)c3)C2)cc1Cl (stereo not drawn) [Compound 7, 1-(3-chloro-4-methylphenyl)-3-(1-(4-(2,6-dioxopiperidin-3-yl)-3-fluorophenyl)azetidin-3-yl)urea]	30 to 300	100 to 1000
Cc1ccc(NC(=O)OC2CN(c3ccc(C4CCC(=O)NC4=O)c(F)c3)C2)cc1Cl (stereo not drawn) [Compound 8, 1-(4-(2,6-dioxopiperidin-3-yl)-3-fluorophenyl) azetidin-3-yl(3-chloro-4-methylphenyl)carbamate]	≤ 30	100 to 1000
Cc1c(Cl)cc(NC(=O)NC2CN(c3cc(F)c(C4CCC(=O)NC4=O)c(F)c3)C2)cc1CN1CC2CC1CO2 (stereo not drawn) [Compound 9, 1-(3-(2-oxa-5-azabicyclo[2.2.1]heptan-5-ylmethyl)-5-chloro-4-methylphenyl)-3-(1-(4-(2,6-dioxopiperidin-3-yl)-3,5-difluorophenyl)azetidin-3-yl)urea]	≤ 30	≤ 100
C[C@@H]1CCCN1c1ccc(NC(=O)OC2CN(c3cc(F)c(C4CCC(=O)NC4=O)c(F)c3)C2)cn1 (stereo partly drawn) [Compound 10, 1-(4-(2,6-dioxopiperidin-3-yl)-3,5-difluorophenyl)azetidin-3-yl (6-((R)-2-methylpyrrolidin-1-yl)pyridin-3-yl)carbamate]	≤ 30	≤ 100
Cc1c(Cl)cc(NC(=O)NC2CN(c3cc(F)c(C4CCC(=O)NC4=O)c(F)c3)C2)cc1OCCN1CCOCC1 (stereo not drawn) [Compound 13, 1-(3-chloro-4-methyl-5-(2-morpholinoethoxy)phenyl)-3-(1-(4-(2,6-dioxopiperidin-3-yl)-3,5-difluorophenyl)azetidin-3-yl)urea]	≤ 30	≤ 100

Next, values leading:

DC50 (GSPT1) [nM]	IC50 (CRBN-DDB1) [nM]	SMILES
≤ 30	100 to 1000	Cc1cc(C)cc(NC(=O)NC2CN(c3cc(F)c(C4CCC(=O)NC4=O)c(F)c3)C2)c1 (stereo not drawn) [Compound 11, 1-(3,5-dimethylphenyl)-3-(1-(4-(2,6-dioxopiperidin-3-yl)-3,5-difluorophenyl)azetidin-3-yl)urea]
≤ 30	≤ 100	CC(C)(C)c1ccc(NC(=O)NC2CN(c3cc(F)c(C4CCC(=O)NC4=O)c(F)c3)C2)cn1 (stereo not drawn) [Compound 12, 1-(6-(tert-butyl)pyridin-3-yl)-3-(1-(4-(2,6-dioxopiperidin-3-yl)-3,5-difluorophenyl)azetidin-3-yl)urea]
≤ 30	100 to 1000	O=C1CCC(c2c(F)cc(N3CC(OC(=O)Nc4cccc(OC(F)F)c4)C3)cc2F)C(=O)N1 (stereo not drawn) [Compound 14, 1-(4-(2,6-dioxopiperidin-3-yl)-3,5-difluorophenyl)azetidin-3-yl (3-(difluoromethoxy)phenyl)carbamate]
30 to 300	≤ 100	O=C1CCC(c2c(F)cc(N3CC(NC(=O)Nc4cccc(OC(F)F)c4)C3)cc2F)C(=O)N1 (stereo not drawn) [Compound 15, 1-(3-(difluoromethoxy)phenyl)-3-(1-(4-(2,6-dioxopiperidin-3-yl)-3,5-difluorophenyl)azetidin-3-yl)urea]
30 to 300	100 to 1000	O=C1CCC(c2c(F)cc(N3CC(NC(=O)Nc4cc(F)cc(Cl)c4)C3)cc2F)C(=O)N1 (stereo not drawn) [Compound 16, 1-(3-chloro-5-fluorophenyl)-3-(1-(4-(2,6-dioxopiperidin-3-yl)-3,5-difluorophenyl)azetidin-3-yl)urea]
30 to 300	100 to 1000	O=C1CCC(c2c(F)cc(N3CC(NC(=O)Nc4cccc(OC5CC5)c4)C3)cc2F)C(=O)N1 (stereo not drawn) [Compound 17, 1-(3-cyclopropoxyphenyl)-3-(1-(4-(2,6-dioxopiperidin-3-yl)-3,5-difluorophenyl)azetidin-3-yl)urea]
30 to 300	100 to 1000	O=C1CCC(c2c(F)cc(N3CC(NC(=O)Nc4cccc(OC(F)(F)F)c4)C3)cc2F)C(=O)N1 (stereo not drawn) [Compound 18, 1-(1-(4-(2,6-dioxopiperidin-3-yl)-3,5-difluorophenyl)azetidin-3-yl)-3-(3-(trifluoromethoxy)phenyl)urea]
≤ 30	100 to 1000	O=C1CCC(c2c(F)cc(N3CC(NC(=O)Nc4ccc(F)c(OC(F)F)c4)C3)cc2F)C(=O)N1 (stereo not drawn) [Compound 19, 1-(3-(difluoromethoxy)-4-fluorophenyl)-3-(1-(4-(2,6-dioxopiperidin-3-yl)-3,5-difluorophenyl)azetidin-3-yl)urea]
≤ 30	100 to 1000	Cc1ccc(NC(=O)NC2CN(c3cc(F)c(C4CCC(=O)NC4=O)c(F)c3)C2)cc1OC(F)F (stereo not drawn) [Compound 21, 1-(3-(difluoromethoxy)-4-methylphenyl)-3-(1-(4-(2,6-dioxopiperidin-3-yl)-3,5-difluorophenyl)azetidin-3-yl)urea]
30 to 300	100 to 1000	O=C1CCC(c2c(F)cc(N3CC(NC(=O)Nc4cc(F)cc(OC(F)F)c4)C3)cc2F)C(=O)N1 (stereo not drawn) [Compound 22, 1-(3-(difluoromethoxy)-5-fluorophenyl)-3-(1-(4-(2,6-dioxopiperidin-3-yl)-3,5-difluorophenyl)azetidin-3-yl)urea]
